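Protocol summary: plate cells (96-well), add compound at 5 concentrations, incubate 48 h, interpolate endpoints linearly. GI50 is the concentration that inhibits growth by half.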 Active and inactive are the calls of the source. Rule as the data show it: active = GI50 up to about 1.1 µM and inactive = higher.
What was measured:
Experiment in all cases: DTP human tumour cell line panel, 48 h
MCF7 = tested on: MCF7
RPMI-8226 = tested on: RPMI-8226
786-0 = tested on: 786-0
LOX IMVI = tested on: LOX IMVI
HCT-15 = tested on: HCT-15
HCT-116 = tested on: HCT-116
SF-295 = tested on: SF-295
SK-MEL-2 = tested on: SK-MEL-2
OVCAR-3 = tested on: OVCAR-3
U-251 = tested on: U-251
KM12 = tested on: KM12
Hs-578T = tested on: Hs-578T
MDA-N = tested on: MDA-N
SK-MEL-28 = tested on: SK-MEL-28
EKVX = tested on: EKVX
MOLT-4 = tested on: MOLT-4
NCI-H522 = tested on: NCI-H522
OVCAR-4 = tested on: OVCAR-4
M14 = tested on: M14
UO-31 = tested on: UO-31

Compound	GI50 (MCF7)	GI50 (RPMI-8226)	GI50 (786-0)	GI50 (LOX IMVI)	GI50 (HCT-15)	GI50 (HCT-116)	GI50 (SF-295)	GI50 (SK-MEL-2)	GI50 (OVCAR-3)	GI50 (U-251)	GI50 (KM12)	GI50 (Hs-578T)	GI50 (MDA-N)	GI50 (SK-MEL-28)	GI50 (EKVX)	GI50 (MOLT-4)	GI50 (NCI-H522)	GI50 (OVCAR-4)	GI50 (M14)	GI50 (UO-31)
c1ccc(C2=NC3OC2c2ccccc23)cc1 (stereo not given)	3.15 µM (inactive)	> 10 µM (inactive)	> 10 µM (inactive)	> 10 µM (inactive)	> 10 µM	> 10 µM (inactive)	> 10 µM (inactive)	> 10 µM (inactive)	> 10 µM (inactive)	> 10 µM (inactive)	> 10 µM (inactive)	> 10 µM (inactive)	> 10 µM (inactive)	> 10 µM (inactive)	> 10 µM (inactive)	> 10 µM (inactive)	> 10 µM (inactive)	> 10 µM (inactive)	> 10 µM (inactive)	–
CCOC(=O)c1nc2ccc(C(F)(F)F)cc2nc1NCc1cc(OC)c(OC)c(OC)c1	66.5 µM (inactive)	17.7 µM (inactive)	41.6 µM (inactive)	35.7 µM (inactive)	48.9 µM	30 µM (inactive)	> 100 µM (inactive)	40.8 µM (inactive)	55.5 µM (inactive)	–	32.9 µM (inactive)	32.3 µM (inactive)	28.4 µM (inactive)	34 µM (inactive)	60.3 µM (inactive)	70.8 µM (inactive)	37.1 µM (inactive)	–	> 100 µM (inactive)	35.3 µM (inactive)
COC(=O)c1c[nH]c(=O)[nH]c1=O [ISOOROTIC ACID METHYL ESTER]	> 100 µM (inactive)	> 100 µM (inactive)	> 100 µM (inactive)	> 100 µM (inactive)	> 100 µM	> 100 µM (inactive)	> 100 µM (inactive)	> 100 µM (inactive)	> 100 µM (inactive)	–	> 100 µM (inactive)	> 100 µM (inactive)	> 100 µM (inactive)	> 100 µM (inactive)	> 100 µM (inactive)	> 100 µM (inactive)	> 100 µM (inactive)	–	> 100 µM (inactive)	> 100 µM (inactive)
COc1c(O)c(OC)c(C(=O)/C=C/c2ccccc2)c(O)c1OC [PEDICIN]	26.9 µM (inactive)	34.6 µM (inactive)	32.4 µM (inactive)	30.3 µM (inactive)	28.8 µM	17.7 µM (inactive)	35.6 µM (inactive)	24.9 µM (inactive)	22.2 µM (inactive)	31.9 µM (inactive)	30.3 µM (inactive)	30.5 µM (inactive)	20.9 µM (inactive)	33.3 µM (inactive)	23.1 µM (inactive)	30.5 µM (inactive)	16 µM (inactive)	27.9 µM (inactive)	37.6 µM (inactive)	–
Cc1c2ccncc2c(C)c2c1sc1ccccc12	1.84 µM (inactive)	6.87 µM (inactive)	4.86 µM (inactive)	6.18 µM (inactive)	7.24 µM	4.49 µM (inactive)	10.1 µM (inactive)	21 µM (inactive)	14.6 µM (inactive)	10.8 µM (inactive)	12.1 µM (inactive)	13.6 µM (inactive)	13.1 µM (inactive)	13.3 µM (inactive)	4.75 µM (inactive)	2.33 µM (inactive)	5.41 µM (inactive)	14.3 µM (inactive)	11.6 µM (inactive)	–
Nc1cc(-c2ccc(Cl)cc2)nn1-c1nc2ccccc2nc1-c1ccccc1	> 100 µM (inactive)	37.5 µM (inactive)	39 µM (inactive)	> 100 µM (inactive)	> 100 µM	> 100 µM (inactive)	> 100 µM (inactive)	59.7 µM (inactive)	65 µM (inactive)	48.1 µM (inactive)	> 100 µM (inactive)	70.5 µM (inactive)	> 100 µM (inactive)	79.4 µM (inactive)	> 100 µM (inactive)	8.02 µM (inactive)	> 100 µM (inactive)	56.8 µM (inactive)	> 100 µM (inactive)	–
COc1ccc(OC2OC(CO)C(O)C(O)C2O)cc1 (stereo not given)	> 100 µM (inactive)	> 100 µM (inactive)	> 100 µM (inactive)	> 100 µM (inactive)	> 100 µM	> 100 µM (inactive)	> 100 µM (inactive)	> 100 µM (inactive)	> 100 µM (inactive)	> 100 µM (inactive)	> 100 µM (inactive)	> 100 µM (inactive)	> 100 µM (inactive)	> 100 µM (inactive)	> 100 µM (inactive)	> 100 µM (inactive)	> 100 µM (inactive)	–	> 100 µM (inactive)	> 100 µM (inactive)
COc1cc2c(cc1O)CCN[C@@]21CS[C@H]2c3c(OC(C)=O)c(C)c4c(c3C(COC1=O)N1C2C2c3c(cc(C)c(OC)c3O)CC([C@@H]1O)N2C)OCO4 (stereo not given in full)	< 0.0001 µM (active)	0.00191 µM (active)	0.0001 µM (active)	< 0.0001 µM (active)	0.0001 µM	0.0001 µM (active)	< 0.0001 µM (active)	< 0.0001 µM (active)	< 0.0001 µM (active)	0.0001 µM (active)	< 0.0001 µM (active)	< 0.0001 µM (active)	< 0.0001 µM (active)	< 0.0001 µM (active)	< 0.0001 µM (active)	< 0.0001 µM (active)	< 0.0001 µM (active)	< 0.0001 µM (active)	< 0.0001 µM (active)	–
CC1(C)[N+]([O-])=[N+]([O-])C1(C)O (stereo not given)	> 100 µM (inactive)	> 100 µM (inactive)	> 100 µM (inactive)	> 100 µM (inactive)	> 100 µM	> 100 µM (inactive)	–	> 100 µM (inactive)	> 100 µM (inactive)	> 100 µM (inactive)	> 100 µM (inactive)	> 100 µM (inactive)	> 100 µM (inactive)	> 100 µM (inactive)	> 100 µM (inactive)	> 100 µM (inactive)	> 100 µM (inactive)	> 100 µM (inactive)	> 100 µM (inactive)	> 100 µM (inactive)
Cc1ccc(-n2nncc2[Si](C)(C)C)s1	> 100 µM (inactive)	> 100 µM (inactive)	> 100 µM (inactive)	> 100 µM (inactive)	> 100 µM	> 100 µM (inactive)	> 100 µM (inactive)	> 100 µM (inactive)	> 100 µM (inactive)	> 100 µM (inactive)	–	> 100 µM (inactive)	> 100 µM (inactive)	> 100 µM (inactive)	–	–	> 100 µM (inactive)	> 100 µM (inactive)	> 100 µM (inactive)	> 100 µM (inactive)
COC(=O)N/N=C(\c1ccccc1)c1ccc(OC)cc1	> 100 µM (inactive)	> 100 µM (inactive)	> 100 µM (inactive)	35.3 µM (inactive)	> 100 µM	> 100 µM (inactive)	–	> 100 µM (inactive)	> 100 µM (inactive)	> 100 µM (inactive)	> 100 µM (inactive)	> 100 µM (inactive)	> 100 µM (inactive)	> 100 µM (inactive)	> 100 µM (inactive)	> 100 µM (inactive)	> 100 µM (inactive)	> 100 µM (inactive)	> 100 µM (inactive)	35.1 µM (inactive)

Reference: ChEMBL document CHEMBL1201862, “PubChem BioAssay data set” (2004)
